US8084497B2, “C-(2-phenyl-cyclohexyl)-methylamine compounds for therapy of fibromyalgia” (Gruenenthal GmbH, priority 2003, dated 2011)
Counter-ions that a name gives are not always drawn. Marks after values point to notes of the source that are not given here.

Columns and labels:
human μ-opiate receptor = molecular target: T1, human μ-opiate receptor (Homo sapiens, UniProt P35372); assay: Affinity for the human μ-opiate receptor ([3H]-naloxone displacement, CHO-K1 membrane preparation, SPA); assay type: binding
T1 construct: purchased Perkin Elmer, Zaventem, Belgium RB-HOM; host or cells: CHO-K1 cells (recombinant expression)
Procedure: Investigation of the affinity for the human μ-opiate receptor The receptor affinity for the human μ-opiate receptor is determined in a homogeneous set-up in microtitre plates. For this, dilution series of the substances to be tested are incubated with a receptor membrane preparation (15-40 μg protein/250 μl incubation batch) of CHO-K1 cells which express the human μ-opiate receptor (RB-HOM receptor membrane preparation from Perkin Elmer, Zaventem, Belgium) in the presence of 1 nmol/l of the radioactive ligand [^3H]-naloxone (NET719, Perkin Elmer, Zaventem, Belgium) and 1 mg WGA-SPA-Beads (wheat germ agglutinin SPA beads from Amersham/Pharmacia, Freiburg, Germany) in a total volume of 250 μl for 90 minutes at room temperature. 50 mmol/l Tris-HCl supplemented with 0.05% sodium azide and with 0.06% bovine serum albumin is used as the incubation buffer. 25 μmol/l naloxone are additionally added for determination of the non-specific binding. After the end of the ninety-minute incubation time, the microtitre plates are centrifuged for 20 minutes at 1,000 g and the radioactivity is measured in a […] (Microbeta-Trilux, PerkinElmer Wallac, Freiburg, Germany). The percentage displacement of the radioactive ligand from its binding to the human μ-opiate receptor is determined at a concentration of the test substances of 1 μmol/l and stated as the percentage inhibition of the specific binding. Starting from the percentage displacement by various concentrations of the test substances, IC50 inhibitory concentrations which cause a 50 percent displacement of the radioactive ligand are calculated. By conversion by means of the Cheng-Prusoff relationship, Ki values for the test substances are obtained (Cheng and Prusoff 1973).

5-HT reuptake = molecular target: T2, 5-HT reuptake (Rattus norvegicus, UniProt P31652); assay: 5-HT reuptake inhibition in rat brain synaptosomes (medulla+pons); assay type: biochemical
T2 construct: synaptosomes are freshly isolated from areas of the rat brain; from tissue; host or cells: P2 synaptosome fraction from the medulla+pons region of male rat brain
Text: In order to be able to carry out these in vitro studies, synaptosomes are freshly isolated from areas of the rat brain. […] For the NA reuptake these vesicular particles are isolated from the hypothalamus, and for the 5-HT reuptake from the medulla+pons region of male rat brains.
The IC50 values were obtained with the aid of the computer program “Figure P” (version 6.0, Biosoft, Cambridge, England). […] The computer program “Ligand” (version 4, Biosoft, England) was used to display KD values.

rats = assay: Elevated plus maze test on rats (onset of anxiolytic actions); assay type: in vivo, rat
Procedure: In the elevated plus maze test the actions of substances on the endogenous anxiety of rodents towards open and elevated places are determined.
The apparatus was placed approx. 1 m above the floor and comprised four arms arranged in a cross, two opposite arms being open and two closed. […] The duration of stay and the number of entries into the open arms were evaluated. The group size was 10-15 animals. The single administration of the test substances or of the control vehicle took place 30 min before testing.
It is reported in the literature that benzodiazepines induce an increased duration of stay and entries into the open compartment. […] The typical disadvantages of monoamine reuptake inhibitors in the therapy of anxiety patients, namely the delayed onset of action and the initially anxiogenic-like effects, can thus be followed in the elevated plus maze test on rats. The elevated plus maze test is therefore a suitable animal model for the investigation of new therapies which have the aim of accelerating the onset of action of monoamine reuptake inhibitors.
Statistical evaluation: Anova plus post-hoc Dunnett's test (Significance level: p<0.05; *: significant versus vehicle; #: significant versus intrinsic effect of 16 mg/kg i.p. 3-(2-dimethylaminomethyl-cyclohexyl)-phenol).

[1] = 8 mg/kg i.p., single administration 30 min before testing
[2] = 16 mg/kg i.p., single administration 30 min before testing
[3] = 2 mg/kg i.p., single administration
[4] = 1 mg/kg i.p., single administration

T1 sequence (P35372 whole entry): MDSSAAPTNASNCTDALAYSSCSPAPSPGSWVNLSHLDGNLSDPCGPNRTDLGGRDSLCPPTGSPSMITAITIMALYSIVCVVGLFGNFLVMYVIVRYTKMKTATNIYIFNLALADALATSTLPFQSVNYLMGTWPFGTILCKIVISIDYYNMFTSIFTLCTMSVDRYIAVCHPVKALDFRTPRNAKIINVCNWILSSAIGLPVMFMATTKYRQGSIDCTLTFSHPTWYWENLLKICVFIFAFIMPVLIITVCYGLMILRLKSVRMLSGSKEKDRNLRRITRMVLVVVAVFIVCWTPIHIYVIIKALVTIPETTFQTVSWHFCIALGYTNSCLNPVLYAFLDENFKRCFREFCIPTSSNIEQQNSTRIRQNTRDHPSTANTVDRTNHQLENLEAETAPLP
T2 sequence (P31652 whole entry): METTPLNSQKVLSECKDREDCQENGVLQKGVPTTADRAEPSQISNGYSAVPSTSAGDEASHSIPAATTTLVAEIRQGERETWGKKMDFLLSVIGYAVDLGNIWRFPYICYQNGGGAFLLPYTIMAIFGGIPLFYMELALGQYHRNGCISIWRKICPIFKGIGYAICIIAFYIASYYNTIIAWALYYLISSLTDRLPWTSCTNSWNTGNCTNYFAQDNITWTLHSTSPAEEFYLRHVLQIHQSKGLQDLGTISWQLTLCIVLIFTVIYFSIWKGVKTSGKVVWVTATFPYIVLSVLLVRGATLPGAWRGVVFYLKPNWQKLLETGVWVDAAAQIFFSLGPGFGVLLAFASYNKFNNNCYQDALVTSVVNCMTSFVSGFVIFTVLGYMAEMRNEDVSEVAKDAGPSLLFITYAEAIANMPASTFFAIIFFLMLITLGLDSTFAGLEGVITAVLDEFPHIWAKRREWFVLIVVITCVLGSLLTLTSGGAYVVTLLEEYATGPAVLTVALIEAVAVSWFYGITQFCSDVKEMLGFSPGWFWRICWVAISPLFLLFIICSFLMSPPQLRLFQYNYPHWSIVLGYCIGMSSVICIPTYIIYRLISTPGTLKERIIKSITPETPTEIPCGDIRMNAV

Structure (SMILES)	Ki (human μ-opiate receptor) [nM]	Ki (5-HT reuptake) [nM]	Open arms: Duration of stay (rats; [2])	Open arms: Number of entries (rats; [2])	anxiolytic action (in words) (rats; single administration)	duration of stay in the open arms (in words) (rats; single administration)	number of entries into the open arms (in words) (rats; single administration)	also measured
CN(C)CC1CCCCC1c1cccc(O)c1 (centres unmarked) [3-(2-Dimethylaminomethyl-cyclohexyl)-phenol, hydrochloride]	140	50						
CN(C)CC1CCCCC1c1cccc(O)c1 (centres unmarked) [3-(2-Dimethylaminomethyl-cyclohexyl)-phenol]			118.2* sec	8.5	significant anxiolytic actions	significant increase	clear increase	ratio between the μ-opioid component and the monoamine reuptake inhibition (in words) (human μ-opiate receptor; versus 5-HT and NA reuptake inhibition): balanced ratio; Open arms: Duration of stay (rats; [1]): 29.0 s; Open arms: Number of entries (rats; [1]): 3.2; anxiogenic-like action (in words) (rats; acute administration): In no case was an anxiogenic-like action induced
CN1C(=O)CN=C(c2ccccc2)c2cc(Cl)ccc21 [Diazepam]						increase	increase	Open arms: Duration of stay (rats; [3]): 77.7* sec; Open arms: Number of entries (rats; [3]): 8.1*
C=CCN1CC[C@]23c4c5ccc(O)c4O[C@H]2C(=O)CC[C@@]3(O)[C@H]1C5 [Naloxone]								Open arms: Duration of stay (rats; [4]): 28.6 s; Open arms: Number of entries (rats; [4]): 4.5
CNCC1CCCCC1c1cccc(O)c1 (centres unmarked) [3-(2-Methylaminomethyl-cyclohexyl)-phenol hydrochloride]	870	5670						
COc1ccc(C(CN(C)C)C2(O)CCCCC2)cc1 (centres unmarked) [Venlafaxine]			66.9 s	4.6	no anxiolytic action			μ-Opioid receptor affinity (Ki values) (human μ-opiate receptor; [3H]-naloxone, CHO-K1 membranes): inactive
